{
  "source": "patent US8829054B1",
  "about": "“Ready-to-use co-solvents pharmaceutical composition in modified flexible plastic container” (Welgrace Research Group, priority 2013, dated 2014)",
  "origin": "cited, not measured here",
  "conditions": "published literature, Rosenberg et al. 1988",
  "data": [
    {"smiles": "COC(=O)CCc1ccc(OCC(O)CNC(C)C)cc1.Cl", "note": "(stereo not shown) [Esmolol, methyl3-[4-[2-hydroxy-3-(isopropylamino)propoxy]phenyl]propionate hydrochloride]", "values": [
      {"measurement": "activation energies for Esmolol decompositions", "value": "19 to 21.5", "unit": "kcal/mol"}
    ]}
  ]
}
